“Also recorded” adds a separate entry of the source. d = 2'-deoxy (DNA); r = 2'-OH (RNA)
Legend:
Type in all cases: in vivo, mouse
[1] = tested on: choroidal neovascularization; test: Laser-induced choroidal neovascularization (CNV) volume in mice; conditions: for CNV volume in wild-type mice versus PBS: FIG. 7/8, 0.25 μg into the vitreous humor immediately after laser injury; for CNV in TLR3−/− mice: FIG. 7, differences not statistically significant; for effect on choroidal neovascularization (CNV): FIG. 1, 0.2-2 μg, poly I:C vs control poly dI:dC, loxoribine vs control PBS; for ability to suppress CNV in IL-10−/− mice / ability to suppress CNV in IL-12−/− mice: FIG. 6, 2 μg; for ability to suppress CNV in IL-10−/− mice: IL-10−/− mice versus wild-type; for ability to suppress CNV in IL-12−/− mice: IL-12−/− mice versus wild-type
From the text: All animal experiments were in accordance with the guidelines of the University of Kentucky IACUC and the Association for Research in Vision and Ophthalmology. Male C57BL/6J mice (Jackson Laboratory) between 6 and 8 weeks of age were used to minimize variability. The sources for the other mouse strains were: TLR3−/−, IL-10−/−, IL-12−/−, IFNγ−/− (Jackson Laboratory), IFNAR-1−/− (gift of H. Virgin, Washington University), TLR7−/− (gift of D. Golenback, University of Massachusetts), TLR9−/− (gift of E. Pearlman, Case Western Reserve University), VEGFR1 tyrosine kinase−/− (gift of M. Shibuya, University of Tokyo), Trif−/− (Trif deficient Lps2 mice from The Jackson Laboratories). For all procedures, anesthesia was achieved by intraperitoneal injection of 50 mg/kg ketamine hydrochloride (Ft. Dodge Animal Health) and 10 mg/kg xylazine (Phoenix Scientific), and pupils were dilated with topical 1% tropicamide (Alcon Laboratories).
(§1) Laser photocoagulation (532 nm, 200 mW, 100 ms, 75 μm) (OcuLight GL, Iridex Corporation) was performed (volume studies: 3/eye; protein analyses/flow cytometry: 12/eye) on both eyes of each animal to induce CNV (choroidal neovascularization). CNV volumes were measured by scanning laser confocal microscope (TCS SP, Leica) with 0.5% FITC-Griffonia simplicifolia Isolectin B4 (Vector Laboratories) or 0.5% FITC-rat antibody against mouse CD31 (BD Biosciences). Volumes obtained by lectin and CD31 staining were highly correlated (r^2=0.95).
Also tested were shorter non-targeted siRNAs: a 5+2 length nucleotide (5 nucleotides plus a 2 nucleotide overhang, with one strand having the sequence UAAGGdTdT and the other strand having the sequence CCUUAdTdT), and a 11+2 length nucleotide (11 nucleotides plus a 2 nucleotide overhang, with one strand having the sequence […]dTdT and the other strand having the sequence […]dTdT).
Because the probability of each laser lesion developing CNV is influenced by the group to which it belongs, the mouse, the eye, and the laser spot, the mean lesion volumes were compared using a linear mixed model with a split plot repeated measures design. The whole plot factor was the genetic group to which the animal belonged while the split plot factor was the eye. Statistical significance was determined at the 0.05 level. Post hoc comparison of means was constructed with a Bonferroni adjustment for multiple comparisons. ELISA measurements were compared by Student's t-test.

IL-10 = IL-10 protein ELISA in RPE/choroid after laser injury; conditions: FIG. 4; 2 μg; wild-type mice; 3 days after laser injury
Method: as §1, with “(r^2=0.95). […]” for “(r^2=0.95).”
(§2) IL-10 and IL-12 protein levels were measured by ELISA (Peprotech) according to the manufacturer's instructions, as were IFN-α, IFN-β and IFN-γ (PBL InterferonSource). Total protein was measured according to Biorad.
(§3) Because the probability of each laser lesion developing CNV is influenced by the group to which it belongs, the mouse, the eye, and the laser spot, the mean lesion volumes were compared using a linear mixed model with a split plot repeated measures design. […] Statistical significance was determined at the 0.05 level. […]

IL-12 = IL-12 protein ELISA in RPE/choroid after laser injury; conditions: FIG. 4; 2 μg; wild-type mice; 1 day after laser injury
Method: as §1, with “(r^2=0.95). […]” for “(r^2=0.95).”
as §2, §3
IFN-α and IFN-β were measured by ELISA and normalized to total protein. […] IFN-γ was measured by ELISA (PBL InterferonSource) and IL-12 was measured by ELISA (eBioscience) and normalized to total protein. *P<0.05.

[2] = dose-dependent, intravitreous immediately after laser injury, P<0.05

| Compound | CNV volume in wild-type mice versus PBS ([1]; P<0.05) | CNV in TLR3−/− mice ([1]; 0.25 μg intravitreous) | CNV in VEGFR1 tk−/− mice versus PBS ([1]; FIG. 8, 0.25 μg intravitreous, VEGFR1 tyrosine kinase−/− mice, P<0.05) | effect on choroidal neovascularization in wild-type C57BL/6J mice ([1]; FIG. 14, intravitreous immediately after laser injury, dose-dependent, P<0.05) | effect on choroidal neovascularization (CNV) [1, 2] | ability to suppress CNV in IL-10−/− mice [1] | ability to suppress CNV in IL-12−/− mice [1] | IL-10 protein expression in the RPE/choroid (IL-10) | IL-12 protein expression in the RPE/choroid (IL-12) |
| --- | --- | --- | --- | --- | --- | --- | --- | --- | --- |
| Bevasiranib: siRNA against VEGF-A; sense ACCUCACCAAGGCCAGCACdTdT, antisense GUGCUGGCCUUGGUGAGGUdTdT (sense ACCUCACCAAGGCCAGCACTT; antisense GUGCUGGCCUUGGUGAGGUTT; sugars from the 5' end r19 d2, backbone not given here) | essentially equally effective in suppressing CNV | non of them suppressed CNV | – | – | – | – | – | – | – |
| Sirna-027: siRNA against VEGFR-1; sense CUGAGUUUAAAAGGCACCCdTdT, antisense GGGUGCCUUUUAAACUCAGdTdT (sense CUGAGUUUAAAAGGCACCCTT; antisense GGGUGCCUUUUAAACUCAGTT; sugars from the 5' end r19 d2, backbone not given here) | essentially equally effective in suppressing CNV; also recorded: significantly lower than control | non of them suppressed CNV | suppressed CNV | – | – | – | – | – | – |
| recombinant mouse IFNγ: recombinant mouse IFNγ (eBioscience) | – | – | – | reduced choroidal neovascularization | – | – | – | – | – |
| Poly I:C | – | – | – | – | reduced CNV | markedly reduced | markedly reduced | induced | induced |
| C=CCn1c(=O)n([C@@H]2O[C@H](CO)[C@@H](O)[C@H]2O)c2nc(N)[nH]c(=O)c21 [Loxoribine] | – | – | – | – | reduced CNV | markedly reduced | markedly reduced | induced | induced |

— patent US8957035B2, “Toll like receptor (TLR) stimulation for ocular angiogenesis and macular degeneration” (University of Kentucky Research Foundation, priority 2006, dated 2015)
